Where only a bound is given, the exact number is not on record here.

Here are results for 38 compounds from patent US20190185479A1, “BICYCLIC NITROGENATED HETEROCYCLIC COMPOUND” (MITSUBISHI TANABE PHARMA CORPORATION, priority 2016, published 2019).

This experiment has as its target T1, Human PDE7B (hPDE7B) (Homo sapiens, UniProt Q9NP56).
T1 construct: made in house; host or cells: COS-7 cells
The experiment in a line: Measurement of PDE7 inhibitory activity (Experimental Example 1; residual cAMP, LANCE Ultra cAMP TR-FRET). The class given is biochemical. Particulars: cAMP 3 nmol/L, room temperature 60 minutes. As for the experimental part:
Human PDE7B (hPDE7B) was isolated from COS-7 cells transfected with plasmids encoding hPDE7B according to the method described in a reference, Biochemical and Biophysical Research Communication, 271, p. 575-583 (2000). The resulting enzyme solution was used in the PDE assay.
PDE7 inhibitory assay was carried out by reacting the mixture of a compound, hPDE7B, and cAMP, and measuring the residual cAMP by a detection method using LANCE (registered trademark) Ultra cAMP Detection Kit (ParkinElmer). The compound was dissolved in DMSO, and diluted so that the concentration would become 50 times of the final concentration. The hPDE7B and cAMP were diluted with an assay buffer (50 mmol/L Tris-HCl, 1 mmol/L MgCl2, 0.1% BSA, 0.5 mmol/L DTT, pH7.5) so that the hPDE7B would have an appropriate enzyme activity and the concentration of cAMP would become 6 nmol/L. To a 96 well plate were added the compound (2 μL) (DMSO final concentration: 2%), hPDE7B (48 μL), and cAMP (50 μL) (concentration at the reaction: 3 nmol/L), and the resulting mixture was reacted at room temperature for 60 minutes. The reaction solution (20 μL) was subjected to a TR-FRET method according to the protocol specified by the kit to measure the concentration of the residual cAMP. In the assay, to a tracer solution specified by the kit was added 0.5 mmol/L of 3-isobutyl-1-methylxanthine (IBMX, nonselective PDE inhibitor) in order to stop the PDE enzyme reaction after the completion of reaction until the measurement.
The reaction without a compound was defined as “0% inhibition”, the reaction without hPDE7B was defined as “100% inhibition”, and the inhibition rate of the compound was calculated by the following equation.
Inhibition rate of compound (%)={(Residual cAMP concentration at the addition of compound−Residual cAMP concentration in 0% inhibition)/(Residual cAMP concentration in 100% inhibition−Residual cAMP concentration in 0% inhibition)}×100

T1 sequence (Q9NP56 whole entry): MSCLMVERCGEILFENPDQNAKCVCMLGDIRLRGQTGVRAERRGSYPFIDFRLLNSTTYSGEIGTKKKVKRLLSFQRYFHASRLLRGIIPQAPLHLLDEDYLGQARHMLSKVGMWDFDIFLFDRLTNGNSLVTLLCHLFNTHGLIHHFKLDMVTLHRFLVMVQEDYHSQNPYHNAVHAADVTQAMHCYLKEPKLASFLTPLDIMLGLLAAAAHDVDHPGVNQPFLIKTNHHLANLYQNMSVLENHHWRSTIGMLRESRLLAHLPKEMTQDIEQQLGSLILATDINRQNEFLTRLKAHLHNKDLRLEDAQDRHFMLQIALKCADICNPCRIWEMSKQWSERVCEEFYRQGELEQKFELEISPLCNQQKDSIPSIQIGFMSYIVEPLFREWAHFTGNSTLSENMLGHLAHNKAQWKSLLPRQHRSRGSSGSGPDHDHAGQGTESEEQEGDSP

The compound `CC1CCN(c2nnc3c(N)nccn23)CC1C` (mixture of isomers) [Example 55, 3-(3,4-dimethylpiperidin-1-yl) [1,2,4]triazolo[4,3-a]pyrazin-8-amine] had a 50% inhibitory concentration (IC50) of 30 nM.

The compound `CC1CCCCC1n1nnc2c(N)ncnc21` (racemic) [Example 1, 3-(trans-2-methylcyclohexyl)-3H-[1,2,3]triazolo[4,5-d]pyrimidin-7-amine] displayed an IC50 of 80 nM.

For `Nc1nccn2c(C3CCCc4ccccc43)nnc12` (racemic) [Example 17, 3-(1,2,3,4-tetrahydronaphthalen-1-yl)-[1,2,4]triazolo[4,3-a]pyrazin-8-amine], half-maximal inhibition (IC50) required 320 nM.

`CCC1CCCCN1c1nnc2c(N)nccn12` (racemic) [Example 23, 3-(2-ethylpiperidin-1-yl) [1,2,4]triazolo[4,3-a]pyrazin-8-amine] showed a half-maximal inhibitory concentration (IC50) of 40 nM.

Consider `CC1CC(C)CN(c2nnc3c(N)nccn23)C1` (racemic) [Example 53, 3-[trans-3,5-dimethylpiperidin-1-yl][1,2,4]triazolo[4,3-a]pyrazin-8-amine], for which inhibition was half-maximal at 20 nM (IC50).

`CC1CCC(C)N(c2nnc3c(N)nccn23)C1` (racemic) [Example 58, 3-(2,5-dimethylpiperidin-1-yl) [1,2,4]triazolo[4,3-a]pyrazin-8-amine]: the IC50 amounted to 20 nM.

The compound `CC1CCC(C)N(c2nnc3c(N)nccn23)C1` (racemic) [Example 59, 3-(2,5-dimethylpiperidin-1-yl) [1,2,4]triazolo[4,3-a]pyrazin-8-amine] yielded an IC50 of 240 nM.

Consider `CC1CCC(C)N(c2nnc3c(N)ncc(C#N)n23)C1` (racemic) [Example 60, 8-amino-3-(2,5-dimethylpiperidin-1-yl) [1,2,4]triazolo[4,3-a]pyrazine-5-carbonitrile], for which the IC50 was less than 10 nM.

On to `CC1CCC(C)(C)CN1c1nnc2c(N)nccn12` (racemic) [Example 65, 3-(2,5,5-trimethylpiperidin-1-yl) [1,2,4]triazolo[4,3-a]pyrazin-8-amine], for which the IC50 is less than 10 nM.

`CC1(C)CCCC(c2nnc3c(N)ncnn23)C1` (racemic) [Example 73, 3-(3,3-dimethylcyclohexyl) [1,2,4]triazolo[3,4-f][1,2,4]triazin-8-amine] had an IC50 of 1 nM.

The compound `CC1CCC(F)(F)CC1c1nnc2c(N)ncnn12` (racemic) [Example 76, 3-(cis-5,5-difluoro-2-methylcyclohexyl) [1,2,4]triazolo[3,4-f][1,2,4]triazin-8-amine] returned an IC50 of less than 10 nM.

For the compound `Nc1nccn2c(C3CCc4ccccc4C3)nnc12` (racemic) [Example 77, 3-(1,2,3,4-tetrahydronaphthalen-2-yl)-[1,2,4]triazolo[4,3-a]pyrazin-8-amine], the half-maximal inhibitory concentration (IC50) is 310 nM.

`CCCC1CCCCN1c1nnc2c(N)nccn12` (racemic) [Example 79, 3-(2-propylpiperidin-1-yl)-[1,2,4]triazolo[4,3-a]pyrazin-8-amine] showed an IC50 of 260 nM.

With `Nc1ncnc2c1nnn2[C@H]1CCC[C@@H](C(F)(F)F)C1` (racemic) [Example 87, 3-[cis-3-(trifluoromethyl)cyclohexyl]-3H-[1,2,3]triazolo[4,5-d]pyrimidin-7-amine], the IC50 was 30 nM.

In the case of `CC1CCCC(n2nnc3c(N)ncnc32)C1` (racemic) [Example 94, 3-(trans-3-methylcyclohexyl)-3H-[1,2,3]triazolo[4,5-d]pyrimidin-7-amine], the midpoint of inhibition, the IC50, lay at 60 nM.

Turning to `CC1CCCCC1n1nnc2c(N)ncnc21` (racemic) [Example 95, 3-(cis-2-methylcyclohexyl)-3H-[1,2,3]triazolo[4,5-d]pyrimidin-7-amine], half-maximal inhibition (IC50) was put at 40 nM.

Regarding `Nc1ncnc2c1nnn2C1CCCCC1C(F)(F)F` (racemic) [Example 96], the IC50 worked out at 950 nM.

Regarding `Nc1ncnc2c1nnn2C1CCCCC1F` (racemic) [Example 97, 3-(cis-2-fluorocyclohexyl)-3H-[1,2,3]triazolo[4,5-d]pyrimidin-7-amine], the IC50 came to 50 nM.

`CC1CCCC(n2nnc3c(N)ncnc32)C1` (racemic) [Example 98, 3-(cis-3-methylcyclohexyl)-3H-[1,2,3]triazolo[4,5-d]pyrimidin-7-amine]: the half-maximal inhibitory concentration (IC50) was 80 nM.

On to `CO[C@H]1CCCC[C@H]1n1nnc2c(N)ncnc21` (racemic) [Example 111, 3-[cis-2-methoxycyclohexyl]-3H-[1,2,3]triazolo[4,5-d]pyrimidin-7-amine], for which the IC50 amounted to 320 nM.

Turning to `Nc1ncnc2c1nnn2C1CCCCC1(F)F` (racemic) [Example 113, 3-(2,2-difluorocyclohexyl)-3H-[1,2,3]triazolo[4,5-d]pyrimidin-7-amine], half-maximal inhibition (IC50) was put at 30 nM.

With `C[C@H]1CCC[C@H](c2nnc3c(N)nccn23)C1` (racemic) [Example 143, 3-(trans-3-methylcyclohexyl) [1,2,4]triazolo[4,3-a]pyrazin-8-amine], half-maximal inhibition (IC50) was put at 50 nM.

For `CC1(C)CCCC(c2nnc3c(N)nccn23)C1` (racemic) [Example 144, 3-(3,3-dimethylcyclohexyl) [1,2,4]triazolo[4,3-a]pyrazin-8-amine], the IC50 turned out to be 10 nM.

Turning to `Nc1nccn2c(C3CCCC4(CC4)C3)nnc12` (racemic) [Example 145, 3-(spiro[2,5]oct-5-yl) [1,2,4]triazolo[4,3-a]pyrazin-8-amine], the IC50 was 30 nM.

In the case of `Nc1nccn2c(C3CCCC(C(F)(F)F)C3)nnc12` (racemic) [Example 146, 3-[cis-3-(trifluoromethyl)cyclohexyl][1,2,4]triazolo[4,3-a]pyrazin-8-amine], the concentration for half-maximal inhibition (IC50) was determined as 40 nM.

As to `CC1CCC(C(F)(F)F)CC1c1nnc2c(N)nccn12` (racemic) [Example 151, 3-[2-methyl-5-(trifluoromethyl)cyclohexyl][1,2,4]triazolo[4,3-a]pyrazin-8-amine], the IC50 was determined as 10 nM.

`CC1CCC(F)(F)CC1c1nnc2c(N)nccn12` (racemic) [Example 152, 3-(cis-5,5-difluoro-2-methylcyclohexyl) [1,2,4]triazolo[4,3-a]pyrazin-8-amine] gave an IC50 of less than 10 nM.

In turn, `CC1CC(c2nnc3c(N)nccn23)CC(F)(F)C1` (racemic) [Example 155, 3-(trans-3,3-difluoro-5-methylcyclohexyl[1,2,4]triazolo[4,3-a]pyrazin-8-amine] returned an IC50 of 90 nM.

Compound `CC1(C)CC(c2nnc3c(N)nccn23)CC(F)(F)C1` (racemic) [Example 156, 3-(3,3-difluoro-5,5-dimethylcyclohexyl) [1,2,4]triazolo[4,3-a]pyrazin-8-amine] registered an IC50 of 30 nM.

The compound `CN1CCCCC1c1nnc2c(N)nccn12` (racemic) [Example 249, 3-(1-methylpiperidin-2-yl)-[1,2,4]triazolo[4,3-a]pyrazin-8-amine] returned a concentration for half-maximal inhibition (IC50) of 740 nM.

`Nc1nccn2c(C3CCCCN3c3ncccn3)nnc12` (racemic) [Example 250, 3-(1-(pyrimidin-2-yl)piperidin-2-yl)-[1,2,4]triazolo[4,3-a]pyrazin-8-amine]: the IC50 amounted to 180 nM.

Turning to `COC(=O)N1CCCCC1c1nnc2c(N)nccn12` (racemic) [Example 251, methyl 2-(8-amino-[1,2,4]triazolo[4,3-a]pyrazin-3-yl)-piperidine-1-carboxylate], the concentration for half-maximal inhibition (IC50) came to 620 nM.

Take `Nc1ncnc2c1nnn2[C@H]1CCC[C@H](C(F)(F)F)C1` (relative stereo) [Example 86, 3-[trans-3-(trifluoromethyl)cyclohexyl]-3H-[1,2,3]triazolo[4,5-d]pyrimidin-7-amine]: 360 nM corresponded to half-maximal inhibition (IC50).

With `Nc1nccn2c([C@@H]3[C@H]4C=CC[C@H]43)nnc12` (relative stereo) [Example 163, 3-[(1S*,5R*,6S*)-bicyclo[3.1.0]hex-2-en-6-yl][1,2,4]triazolo[4,3-a]pyrazin-8-amine], the IC50 worked out at 220 nM.

`CC1CCCN(c2nnc3c(N)nccn23)C1C` (single isomer, unassigned) [Example 56, 3-(2,3-dimethylpiperidin-1-yl) [1,2,4]triazolo[4,3-a]pyrazin-8-amine]: 190 nM corresponded to half-maximal inhibition (IC50).

The compound `CC1CCCCC1c1nnc2c(N)ncnn12` (single isomer, unassigned) [Example 69, 3-(cis-2-methylcyclohexyl) [1,2,4]triazolo[3,4-f][1,2,4]triazin-8-amine] displayed an IC50 of 10 nM.

Regarding `CC1CCCC(c2nnc3c(N)ncnn23)C1` (single isomer, unassigned) [Example 71, 3-(cis-3-methylcyclohexyl) [1,2,4]triazolo[3,4-f][1,2,4]triazin-8-amine], the IC50 amounted to 4 nM.

Take `Nc1ncnn2c(C3CCCC(C(F)(F)F)C3)nnc12` (single isomer, unassigned) [Example 74, 3-[cis-3-(trifluoromethyl)cyclohexyl][1,2,4]triazolo[3,4-f][1,2,4]triazin-8-amine]: the IC50 was less than 10 nM.
